Measurements from US9290788B2, “Device for determining or studying the state of stimulation of the natural defences of plants or portions of plants” (Institut National De La Recherche Agronomique, priority 2010, dated 2016).
“And” between values parts separate entries of the source, which are not always exact repeats. Equal entries are not always repeated.

What was measured:
[1] = test system: fire blight (Erwinia amylovora); details: Test 1, controlled conditions
[2] = test system: 28 target genes (defense genes) in apple tree leaves; experiment: Test 1: relative expression of the 28 defense genes (qPCR, ΔΔCt) in apple tree seedling leaves subjected to NDS treatments and abiotic stresses; assay type: in vivo, apple tree seedlings (Golden Delicious); details: for effect on the modulation of target gene expression (in words): Test 1
[3] = test system: 28 target genes (defense genes) in apple tree leaves; experiment: Test 2: analysis of defenses, expression of the 28 genes (qPCR) in apple tree seedlings sprayed with 10 NDS candidates, with or without hydrogen peroxide; assay type: in vivo, apple tree seedlings (Golden Delicious)
[4] = +H2O2, J2, relative to water control
[5] = +H2O2, J3, relative to water control
[6] = vs water control, +H2O2 (sprayed 24 hours after treatment), J2
[7] = vs water control, +H2O2 (sprayed 24 hours after treatment), J3
[8] = −H2O2, J2, relative to water control
[9] = −H2O2, J3, relative to water control
[10] = abiotic stress, J2, relative to water control
[11] = abiotic stress, J3, relative to water control
[12] = vs water control, abiotic stress treatment, J2

`CC(N)CC(=O)O` (racemic) [Baba, DL-β-amino-n-butyric acid] was tested, and the “protection against fire blight” value [1] was “no protective effect against fire blight”, the “Relative expression APOX (log base 2)” value [2, 4] was 1.49 and 1.76 and the “Relative expression JAR (log base 2)” value [2, 4] was −0.44 and −0.16. For the same molecule, the “Relative expression POX (log base 2)” value [2, 4] was 2.20 and 2.28, the “Relative expression CAD (log base 2)” value [2, 5] was −0.15 and −0.29 and the “Relative expression CalS (log base 2)” value [2, 5] was 2.10 and 1.88. For the same molecule, the “direct stimulator versus potentiator: gene expression after additional H2O2 treatment” value ([2]; H2O2 sprayed 24 hours after treatment) was “triggers the expression of some genes (POX, Pect, for example)”, the “effect on the modulation of target gene expression (in words)” value [2] was “little effect on the modulations of genes” and the “Relative expression of ANS” value [2, 6] was 1.41 log2 and 2.12 log2. For the same molecule, the “Relative expression of PAL” value [2, 6] was 0.29 log2 and 0.55 log2, the “Relative expression of PR-15” value [2, 6] was 0.84 log2 and 0.71 log2 and the “Relative expression of PR-1” value [2, 7] was 2.71 log2 and 1.77 log2. The “Relative expression of PR-5” value [2, 7] was 1.91 log2 and 1.34 log2, the “Relative expression of PR-15” value [2, 7] was 1.46 log2 and 2.06 log2 and the “Relative expression of ANS” value ([2]; vs water control, −H2O2, J2) was 1.28 log2 and 1.53 log2. For the same molecule, the “Relative expression of PAL” value ([2]; vs water control, −H2O2, J2) was 0.42 log2 and 0.27 log2, the “Relative expression of PAL” value ([2]; vs water control, −H2O2, J3) was 0.20 log2 and 0.29 log2 and the “Relative expression CHS (log base 2)” value [2, 8] was 0.27 and 0.29. For the same molecule, the “Relative expression DFR (log base 2)” value [2, 8] was 0.64 and 0.93, the “Relative expression GST (log base 2)” value [2, 8] was −0.05 and −0.34 and the “Relative expression CHS (log base 2)” value [2, 9] was 0.19 and 0.31. The “Relative expression FPPS (log base 2)” value [2, 9] was 0.46 and 0.56.
`OO` [H2O2, hydrogen peroxide] was tested, and the ANS expression ([3]; J2 + H2O2) was −0.63, the CHS expression ([3]; J2 + H2O2) was −0.80 and the DFR expression ([3]; J2 + H2O2) was −0.65. The FPPS expression ([3]; J2 + H2O2) was 0.06, the HMGR expression ([3]; J2 + H2O2) was 1.05 and the PAL expression ([3]; J2 + H2O2) was −0.56. It also gave a PPO expression ([3]; J2 + H2O2) of 1.20, a PR1 expression ([3]; J2 + H2O2) of 0.85 and a PR2 expression ([3]; J2 + H2O2) of 3.69. It also gave a PR4 expression ([3]; J2 + H2O2) of 3.89, a PR5 expression ([3]; J2 + H2O2) of 0.91 and a PR8 expression ([3]; J2 + H2O2) of 2.12. The PR14 expression ([3]; J2 + H2O2) was 1.32, the PR15 expression ([3]; J2 + H2O2) was −0.26 and the ANS expression ([3]; J3 + H2O2) was −0.49. It also gave a CHS expression ([3]; J3 + H2O2) of −0.75, a DFR expression ([3]; J3 + H2O2) of −0.36 and an FPPS expression ([3]; J3 + H2O2) of 0.08. It also gave an HMGR expression ([3]; J3 + H2O2) of 0.14, a PAL expression ([3]; J3 + H2O2) of −0.57 and a PPO expression ([3]; J3 + H2O2) of 0.71. The PR1 expression ([3]; J3 + H2O2) was 1.41, the PR2 expression ([3]; J3 + H2O2) was 4.05 and the PR4 expression ([3]; J3 + H2O2) was 2.59. For the same molecule, the PR5 expression ([3]; J3 + H2O2) was 1.73, the PR8 expression ([3]; J3 + H2O2) was 1.73 and the PR14 expression ([3]; J3 + H2O2) was 3.29. For the same molecule, the PR15 expression ([3]; J3 + H2O2) was 1.57, the “effect on the modulation of target gene expression (in words)” value [2] was “only slightly modulate the target gene expressions” and the “Relative expression APOX (log base 2)” value [2, 10] was 0.41 and 0.38. The “Relative expression DFR (log base 2)” value [2, 10] was 0.50 and 0.80, the “Relative expression EIN3 (log base 2)” value [2, 10] was 1.44 and 1.53 and the “Relative expression POX (log base 2)” value [2, 10] was 1.07 and 1.06. The “Relative expression WRKY (log base 2)” value [2, 10] was −0.04 and −0.12, the “Relative expression CAD (log base 2)” value [2, 11] was −0.72 and −0.54 and the “Relative expression GST (log base 2)” value [2, 11] was 0.33 and 0.40. For the same molecule, the “Relative expression LOX2 (log base 2)” value [2, 11] was 0.16 and 0.42, the “Relative expression of PR-2” value [2, 12] was 4.75 log2 and 3.92 log2 and the “Relative expression of PR-4” value [2, 12] was 2.53 log2 and 4.27 log2. For the same molecule, the “Relative expression of PR-8” value [2, 12] was 0.83 log2 and 0.79 log2 and the “Relative expression of PR-2” value ([2]; vs water control, abiotic stress treatment, J3) was 2.36 log2 and 3.38 log2.
